Numbers after ± are expanded uncertainties.
Tests used:
[1] = refractive index (Na D-line) (dimensionless); xn = mol fraction of the nth substance listed; conditions: 101 kPa, Liquid, Standard Abbe refractometry
[2] = xn = mol fraction of the nth substance listed; conditions: 101 kPa, Liquid; for speed of sound: Sing-around technique in a fixed-path interferometer; for mass density: Vibrating tube method

CCCCCCCC[n+]1ccn(C)c1.F[B-](F)(F)F [1-methyl-3-octylimidazolium tetrafluoroborate] + C1CCOC1
Conditions | mass density, 298.15 K [kg/m3] | mass density, 308.15 K [kg/m3] | mass density, 318.15 K [kg/m3] | refractive index, 298.15 K | refractive index, 308.15 K | refractive index, 318.15 K | speed of sound, 298.15 K [m/s] | speed of sound, 308.15 K [m/s] | speed of sound, 318.15 K [m/s]
[1], x1 = 0.0963 | – | – | – | 1.41425 ± 0.00039 | 1.40956 ± 0.00039 | 1.40529 ± 0.0004 | – | – | –
[1], x1 = 0.2018 | – | – | – | 1.42039 ± 0.0004 | 1.4162 ± 0.0004 | 1.41236 ± 0.00041 | – | – | –
[1], x1 = 0.312 | – | – | – | 1.42432 ± 0.00042 | 1.42045 ± 0.00042 | 1.41715 ± 0.00042 | – | – | –
[1], x1 = 0.4027 | – | – | – | 1.42658 ± 0.00043 | 1.4228 ± 0.00043 | 1.41965 ± 0.00043 | – | – | –
[1], x1 = 0.4917 | – | – | – | 1.42817 ± 0.00044 | 1.42451 ± 0.00044 | 1.42147 ± 0.00044 | – | – | –
[1], x1 = 0.6241 | – | – | – | 1.42996 ± 0.00047 | 1.42631 ± 0.00046 | 1.42348 ± 0.00046 | – | – | –
[1], x1 = 0.6862 | – | – | – | 1.43062 ± 0.00048 | 1.42695 ± 0.00047 | 1.42415 ± 0.00047 | – | – | –
[1], x1 = 0.7615 | – | – | – | 1.43129 ± 0.00049 | 1.4277 ± 0.00049 | 1.42493 ± 0.00049 | – | – | –
[1], x1 = 0.8612 | – | – | – | 1.43207 ± 0.00051 | 1.42846 ± 0.00051 | 1.4258 ± 0.00051 | – | – | –
[1], x1 = 1 | – | – | – | 1.43296 ± 0.00053 | 1.42939 ± 0.00053 | 1.42684 ± 0.00053 | – | – | –
[2], x1 = 0.0963 | 944.168 ± 0.21 | 934.385 ± 0.22 | 924.531 ± 0.22 | – | – | – | 1310.8 ± 1.4 | 1268.5 ± 1.4 | 1226.8 ± 1.4
[2], x1 = 0.2018 | 987.574 ± 0.23 | 978.487 ± 0.23 | 969.198 ± 0.23 | – | – | – | 1351.2 ± 1.5 | 1313.4 ± 1.5 | 1276.2 ± 1.5
[2], x1 = 0.312 | 1018.46 ± 0.29 | 1010.19 ± 0.29 | 1001.93 ± 0.28 | – | – | – | 1384.9 ± 1.6 | 1350.7 ± 1.6 | 1317.1 ± 1.6
[2], x1 = 0.4027 | 1037.11 ± 0.37 | 1029.2 ± 0.36 | 1021.32 ± 0.35 | – | – | – | 1406.3 ± 1.7 | 1374.4 ± 1.7 | 1343 ± 1.7
[2], x1 = 0.4917 | 1051.3 ± 0.45 | 1043.65 ± 0.44 | 1035.82 ± 0.43 | – | – | – | 1422.9 ± 1.8 | 1392.6 ± 1.8 | 1362.8 ± 1.8
[2], x1 = 0.6241 | 1067.66 ± 0.58 | 1060.32 ± 0.57 | 1053.02 ± 0.56 | – | – | – | 1442.5 ± 1.9 | 1413.9 ± 1.9 | 1385.9 ± 1.9
[2], x1 = 0.6862 | 1073.96 ± 0.65 | 1066.73 ± 0.63 | 1059.49 ± 0.62 | – | – | – | 1450.2 ± 2 | 1422.2 ± 2 | 1394.9 ± 2
[2], x1 = 0.7615 | 1080.76 ± 0.73 | 1073.65 ± 0.72 | 1066.46 ± 0.71 | – | – | – | 1458.6 ± 2.1 | 1431.1 ± 2.1 | 1404.5 ± 2.1
[2], x1 = 0.8612 | 1088.58 ± 0.85 | 1081.55 ± 0.84 | 1074.56 ± 0.83 | – | – | – | 1470.2 ± 2.2 | 1444.2 ± 2.2 | 1416.3 ± 2.2
[2], x1 = 1 | 1097.61 ± 1 | 1090.9 ± 1 | 1084.17 ± 1 | – | – | – | 1481.1 ± 2.3 | 1453.9 ± 2.3 | 1428.2 ± 2.3

CCCCCCCC[n+]1ccn(C)c1.F[B-](F)(F)F [1-methyl-3-octylimidazolium tetrafluoroborate] + C1COCCO1
Conditions | mass density, 298.15 K [kg/m3] | mass density, 308.15 K [kg/m3] | mass density, 318.15 K [kg/m3] | refractive index, 298.15 K | refractive index, 308.15 K | refractive index, 318.15 K | speed of sound, 298.15 K [m/s] | speed of sound, 308.15 K [m/s] | speed of sound, 318.15 K [m/s]
[1], x1 = 0.0859 | – | – | – | 1.42308 ± 0.00037 | 1.41854 ± 0.00037 | 1.41465 ± 0.00037 | – | – | –
[1], x1 = 0.192 | – | – | – | 1.42601 ± 0.00038 | 1.42173 ± 0.00038 | 1.41833 ± 0.00038 | – | – | –
[1], x1 = 0.2914 | – | – | – | 1.42812 ± 0.00039 | 1.42412 ± 0.00039 | 1.42107 ± 0.00039 | – | – | –
[1], x1 = 0.3963 | – | – | – | 1.42935 ± 0.00041 | 1.42549 ± 0.00041 | 1.42264 ± 0.00041 | – | – | –
[1], x1 = 0.4955 | – | – | – | 1.43039 ± 0.00043 | 1.42664 ± 0.00043 | 1.42387 ± 0.00042 | – | – | –
[1], x1 = 0.5947 | – | – | – | 1.43124 ± 0.00045 | 1.42746 ± 0.00044 | 1.42483 ± 0.00044 | – | – | –
[1], x1 = 0.69 | – | – | – | 1.43181 ± 0.00046 | 1.42809 ± 0.00046 | 1.42548 ± 0.00046 | – | – | –
[1], x1 = 0.7938 | – | – | – | 1.43221 ± 0.00049 | 1.42865 ± 0.00049 | 1.42605 ± 0.00048 | – | – | –
[1], x1 = 0.8893 | – | – | – | 1.43262 ± 0.00051 | 1.42907 ± 0.00051 | 1.42628 ± 0.00051 | – | – | –
[1], x1 = 1 | – | – | – | 1.43296 ± 0.00053 | 1.42939 ± 0.00053 | 1.42684 ± 0.00053 | – | – | –
[2], x1 = 0.0859 | 1049.95 ± 0.15 | 1040.08 ± 0.15 | 1030.18 ± 0.15 | – | – | – | 1380.8 ± 1.3 | 1341.1 ± 1.3 | 1301.8 ± 1.3
[2], x1 = 0.192 | 1064.93 ± 0.18 | 1055.92 ± 0.18 | 1047.49 ± 0.18 | – | – | – | 1414.2 ± 1.4 | 1378.1 ± 1.4 | 1343.1 ± 1.4
[2], x1 = 0.2914 | 1074.44 ± 0.23 | 1066.14 ± 0.23 | 1057.87 ± 0.23 | – | – | – | 1436.8 ± 1.5 | 1403.6 ± 1.5 | 1370.9 ± 1.5
[2], x1 = 0.3963 | 1080.96 ± 0.31 | 1073.08 ± 0.3 | 1065.23 ± 0.3 | – | – | – | 1451.6 ± 1.6 | 1420.6 ± 1.6 | 1390 ± 1.6
[2], x1 = 0.4955 | 1085.46 ± 0.4 | 1077.85 ± 0.39 | 1070.11 ± 0.38 | – | – | – | 1460.4 ± 1.7 | 1430.9 ± 1.7 | 1401.8 ± 1.7
[2], x1 = 0.5947 | 1088.93 ± 0.5 | 1081.57 ± 0.49 | 1074.25 ± 0.48 | – | – | – | 1466.5 ± 1.8 | 1438 ± 1.8 | 1410.1 ± 1.8
[2], x1 = 0.69 | 1091.4 ± 0.6 | 1084.18 ± 0.59 | 1076.98 ± 0.58 | – | – | – | 1469 ± 1.9 | 1440.8 ± 1.9 | 1414.8 ± 1.9
[2], x1 = 0.7938 | 1093.66 ± 0.74 | 1086.61 ± 0.72 | 1079.53 ± 0.71 | – | – | – | 1475.1 ± 2.1 | 1447.9 ± 2 | 1421.7 ± 2
[2], x1 = 0.8893 | 1095.2 ± 0.87 | 1088.29 ± 0.86 | 1081.42 ± 0.84 | – | – | – | 1477.8 ± 2.2 | 1450.9 ± 2.2 | 1425.1 ± 2.2
[2], x1 = 1 | 1097.61 ± 1 | 1090.9 ± 1 | 1084.17 ± 1 | – | – | – | 1481.1 ± 2.3 | 1453.9 ± 2.3 | 1428.2 ± 2.3
